Values joined by “and” are separate entries in the source; they are usually repeats but may differ in a detail not shown here. Identical values can stand only once.
Tested on: Donor 1 COP T-Cell Lines
Assay: Multiplex bead cytokine assay (FlowCytoMix), Donor 1 COP T-cell lines
Type: cell-based, human
Conditions: MBP control antigen, 24 hours after Day 56 restimulation
Experimental: Culture medium was removed from cultures prepared as for proliferation assay and utilized to measure cytokine production. In most cases culture medium was collected 18-24 hours after mixing T-cells, APC, and stimulating antigen. Cytokine production was measured by ELISA or bead assay. For measuring cytokine production, 100-150 μL culture medium (100 μL if culture was to be continued, otherwise 150 μL) was removed from each well. In some cases, the culture was continued 48 hours, for a total of 72 hours of culture, and the proliferative response measured.
The concentration of multiple cytokines was measured simultaneously using FlowCytoMix™ kits (eBioscience, San Diego Calif.). These are fluorescent bead based assays consisting of beads conjugated to anti cytokine antibodies. Beads specific for each cytokine are distinguished by size and fluorescence at 670 run. Cytokine bound to each bead is detected using a phycoerythrin conjugated antibody so that the fluorescence at 585 nm reflects the concentration of cytokine in the sample. Two kits were utilized which measured different cytokine panels. The TH1/TH2 kit measures IFN-γ, IL-1β, IL-2, IL-4, IL-5, IL-6, IL-8, IL-10, IL-12p70, TNF-α (TNF) and TNF-β (LT). The TH1/TH2/TH9/TH17/TH22 kit measures […], IL-1β, IL-2, IL-4, IL-5, IL-6, IL-9, IL-10, IL-12p70, IL-13, IL-17, IL-22, and TNF-α (TNF). Both kits were used following the manufacturer's instructions.
IL-12p70, IFN-γ, IL-2, IL-10, IL-8, IL-6, IL-5, IL-4, IL-1β, TNF-α (TNF), and TNF-β (LT) secretion were measured in response to stimulation with 1, 3, or 10 μg/mL GMA, or 1, 3, or 10 μg/mL COP, as well as a no-antigen control and an MBP control, in the presence of autologous EBV-transformed B-LCL.

Sequence FFKNIVTPRTPPPSQGK [MBP] has an IFN-γ (222-1C5) of 64 pg/mL, an IL-2 (222-1C5) of 0 pg/mL and an IL-5 (222-1C5) of 0 pg/mL. For the same sequence, the IL-10 (222-1C5) was 0 pg/mL, the IL-13 (222-1C5) was 82 pg/mL and the IL-22 (222-1C5) was 36 pg/mL. The TNF-α (222-1C5) was 9 pg/mL, the IFN-γ (222-2B8) was 0 pg/mL and the IL-2 (222-2B8) was 0 pg/mL. It also gave an IL-5 (222-2B8) of 0 pg/mL, an IL-10 (222-2B8) of 0 pg/mL and an IL-13 (222-2B8) of 26.77 pg/mL. The IL-22 (222-2B8) was 20.62 pg/mL, the TNF-α (222-2B8) was 0 pg/mL and the IFN-γ (222-2E1) was 20.69 pg/mL. For the same sequence, the IL-2 (222-2E1) was 42.43 pg/mL, the IL-5 (222-2E1) was 0 pg/mL and the IL-10 (222-2E1) was 2.28 pg/mL and 2.3 pg/mL. For the same sequence, the IL-13 (222-2E1) was 51.1 pg/mL, the IL-22 (222-2E1) was 107.54 pg/mL and the TNF-α (222-2E1) was 13.51 pg/mL. The IFN-γ (222-B11 (so in the source)) was 0 pg/mL, the IL-2 (222-B11 (so in the source)) was 0 pg/mL and the IL-5 (222-B11 (so in the source)) was 0 pg/mL. The IL-10 (222-B11 (so in the source)) was 0 pg/mL, the IL-13 (222-B11 (so in the source)) was 0.83 pg/mL and the IL-22 (222-B11 (so in the source)) was 0 pg/mL. It also gave a TNF-α (222-B11 (so in the source)) of 0 pg/mL.
